A short description of data set [1]: Cytotoxicity against human MAGI-CCR5 cells after 48 hrs by MTS cell viability assay. For orientation: Formazan colour is commonly taken as a measure of viable cells.
Data set [2] concerns Human immunodeficiency virus 1. In words: microbe, parasite or virus in culture. Type of data set: functional, organism-based. To be noted: Human immunodeficiency virus 1, 3B, MAGI-CCR5, 48 h.
Data set [3] in a line: Selectivity index, ratio of CC50 for MAGI-CCR5 cells to IC50 for HIV13B infected in human MAGI-CCR5 cells. It is filed as functional.
Data set [4] deals with Human immunodeficiency virus type 1 reverse transcriptase (Human immunodeficiency virus 1, UniProt Q72547). Description: Inhibition of HIV1 reverse transcriptase assessed as residual enzyme activity at 50 uM after 1 hr by ELISA. (In an ELISA, binding on a coated surface is turned into a signal by an enzyme label.)
Data set [5] is described as follows: Permeability of the compound at 100 uM after 5 hrs by PAMPA.

The record followed here is ChEMBL document CHEMBL1806431, “Imidazo[1,2-a]pyridin-3-amines as potential HIV-1 non-nucleoside reverse transcriptase inhibitors” (Bioorg Med Chem, 2011).

What is called CC50 is the concentration giving 50% cytotoxicity. What is called IC50 is the concentration that inhibits the measured activity by half.

Regarding `Cc1ccnc2c1NC(=O)c1cccnc1N2C1CC1` [NEVIRAPINE], the 50% cytotoxic concentration (CC50) at 48 h in data set [1] is > 10 µM. In addition, in data set [2], the IC50 came to 0.09 µM.

Consider `Cc1c(Br)ccc2nc(-c3ccccc3Cl)c(NC3CCCCC3)n12`, for which the CC50 at 48 h in data set [1] is > 200 µM. Besides, the IC50 was determined as 73 µM in data set [2] and 18.9 µM in data set [4]. Further, the “Ratio CC50/IC50” value in data set [3] is >3.

In the case of `Cc1ccn2c(NC3CCCCC3)c(-c3ccccc3Cl)nc2c1`, in data set [5], the permeability entry is “permeable”.

For the compound `Cc1cccc2nc(-c3ccccc3Cl)c(NC3CCCCC3)n12`, the 50% cytotoxic concentration (CC50) at 48 h in data set [1] was 20.5 µM. The values for the IC50 in data set [2] and in data set [4] were 0.19 µM and 1.55 µM, respectively. In data set [3], the “Ratio CC50/IC50” value came to 108.

The compound `N#Cc1ccc2nc(-c3ccccc3Cl)c(NC3CCCCC3)n2c1` came in with a CC50 at 48 h in data set [1] of 140 µM. Also, the IC50 was < 0.63 µM in data set [2] and 6.6 µM in data set [4]. For the same compound, the “Ratio CC50/IC50” value in data set [3] was >222. Moreover, in data set [5], the permeability entry is reported as “permeable”.

The compound `Clc1ccccc1-c1nc2cccc(Cl)n2c1NC1CCCCC1` yielded a CC50 at 48 h in data set [1] of 152 µM. Also, the half-inhibitory concentration (IC50) in data set [2] came out at 0.24 µM; in data set [4], 3.74 µM. The “Ratio CC50/IC50” value in data set [3] turned out to be 633. Besides, the permeability result in data set [5] was “permeable”.

Regarding `Clc1ccccc1-c1nc2ccc(Br)cn2c1NC1CCCCC1`, in data set [1], the CC50 at 48 h is > 200 µM. Also, the 50% inhibitory concentration (IC50) in data set [2] stood at 2.19 µM; in data set [4], 12.2 µM. Besides, the “Ratio CC50/IC50” value in data set [3] is >91.

As to `CC(C)NCC(O)COc1cccc2[nH]ccc12` (stereo not given) [PINDOLOL], in data set [5], the permeability result was “permeable”.

`N#Cc1cccc2nc(-c3ccccc3Cl)c(NC3CCCCC3)n12` had a 50% cytotoxic concentration (CC50) at 48 h in data set [1] of 156 µM. The IC50 is 0.18 µM in data set [2] and 3.47 µM in data set [4]. Moreover, the “Ratio CC50/IC50” value in data set [3] stood at 868. Also, the permeability result in data set [5] is “permeable”.

In the case of `Clc1ccccc1-c1nc2ccccn2c1NC1CCCCC1`, in data set [1], it took 60.4 µM to reach half-maximal cytotoxicity (CC50 at 48 h). For the same compound, the values for the IC50 in data set [2] and in data set [4] were 0.41 µM and 4.4 µM, respectively. Also, in data set [3], the “Ratio CC50/IC50” value stood at 147. In addition, the permeability entry in data set [5] is given as “permeable”.

For `COCCc1ccc(OCC(O)CNC(C)C)cc1` (stereo not given) [METOPROLOL], the permeability entry in data set [5] is “permeable”.

Consider `Cc1ccc2nc(-c3ccccc3Cl)c(NC3CCCCC3)n2c1`, for which, in data set [1], half-maximal cytotoxicity (CC50 at 48 h) was put at 57.4 µM. Further, the IC50 was 0.64 µM in data set [2] and 5.39 µM in data set [4]. The “Ratio CC50/IC50” value in data set [3] was 90. The permeability entry in data set [5] is “permeable”.

For the compound `Clc1ccccc1-c1nc2cccc(Br)n2c1NC1CCCCC1`, in data set [1], the CC50 at 48 h is > 200 µM. Further, the IC50 in data set [2] came to 3.15 µM; in data set [4], 4.62 µM. Moreover, in data set [3], the “Ratio CC50/IC50” value was 64.

`Clc1ccc2nc(-c3ccccc3Cl)c(NC3CCCCC3)n2c1`: in data set [1], the CC50 at 48 h is > 200 µM. Further, the IC50 in data set [2] is 0.84 µM; in data set [4] it was 14.5 µM. Further, the “Ratio CC50/IC50” value in data set [3] is listed as >238. In addition, in data set [5], the permeability entry is on record as “permeable”.

`Clc1ccccc1-c1nc2ccc3ccccc3n2c1NC1CCCCC1` registered a CC50 at 48 h in data set [1] of 146 µM. Moreover, the IC50 in data set [2] was 0.6 µM; in data set [4] it was 7.52 µM. In data set [3], the “Ratio CC50/IC50” value stood at 243. Besides, the permeability result in data set [5] is “permeable”.

Regarding `Fc1ccc2nc(-c3ccccc3Cl)c(NC3CCCCC3)n2c1`, the CC50 at 48 h in data set [1] came out at 160 µM. The IC50 in data set [2] is 1.88 µM; in data set [4] it was 11.3 µM. The “Ratio CC50/IC50” value in data set [3] came out at 85.
